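Method: 48-hour compound exposure of cells in 96-well plates, five concentrations, linear interpolation of endpoints. GI50 is the concentration that inhibits growth by half.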 The source made the active and inactive calls. Cut-off read from the data, not from the text of the source: active = GI50 up to about 1.1 µM and inactive = higher.
Legend:
Assay in all cases: NCI tumour cell line growth inhibition, 48 h
IGROV-1 = test system: IGROV-1
786-0 = test system: 786-0
COLO 205 = test system: COLO 205
KM12 = test system: KM12
SK-MEL-28 = test system: SK-MEL-28
U-251 = test system: U-251
MOLT-4 = test system: MOLT-4
RXF 393 = test system: RXF 393
NCI-H522 = test system: NCI-H522
A549 = test system: A549
TK-10 = test system: TK-10
EKVX = test system: EKVX
SR = test system: SR
UO-31 = test system: UO-31
OVCAR-3 = test system: OVCAR-3
CCRF-CEM = test system: CCRF-CEM
HCC 2998 = test system: HCC 2998
OVCAR-4 = test system: OVCAR-4

Measured: GI50

CN/N=C(\C)C(CN1CCCCC1)C(C1=C(O)c2ccccc2OC1)c1ccccc1 (stereo unspecified)
inactive: IGROV-1 78.3 µM | 786-0 > 100 µM | COLO 205 38.4 µM | KM12 > 100 µM | SK-MEL-28 > 100 µM | U-251 91.2 µM | MOLT-4 39.4 µM | RXF 393 > 100 µM | NCI-H522 > 100 µM | A549 > 100 µM | TK-10 > 100 µM | EKVX > 100 µM | SR 51.3 µM | UO-31 50.4 µM | OVCAR-3 > 100 µM | CCRF-CEM 69.2 µM | HCC 2998 > 100 µM | OVCAR-4 > 100 µM

CC1CCP(=O)(c2ccccc2)c2ccccc21 (stereo unspecified)
inactive: IGROV-1 > 100 µM | 786-0 > 100 µM | COLO 205 51.8 µM | KM12 > 100 µM | SK-MEL-28 > 100 µM | U-251 24.1 µM | MOLT-4 30.8 µM | RXF 393 > 100 µM | NCI-H522 43.6 µM | A549 > 100 µM | TK-10 > 100 µM | EKVX > 100 µM | SR 32.4 µM | UO-31 > 100 µM | OVCAR-3 76.2 µM | CCRF-CEM 37.7 µM | HCC 2998 38.8 µM | OVCAR-4 38.5 µM

CNC(=O)CN(CC(=O)NC)C(=O)NC
inactive: IGROV-1 > 100 µM | 786-0 > 100 µM | COLO 205 > 100 µM | KM12 > 100 µM | SK-MEL-28 > 100 µM | U-251 > 100 µM | MOLT-4 > 100 µM | RXF 393 > 100 µM | NCI-H522 > 100 µM | A549 > 100 µM | TK-10 > 100 µM | EKVX > 100 µM | SR > 100 µM | UO-31 > 100 µM | OVCAR-3 > 100 µM | CCRF-CEM > 100 µM | HCC 2998 > 100 µM | OVCAR-4 > 100 µM

Cc1cc2c(cc1Br)C1(C)CCC(C)C1(C)O2 (stereo unspecified)
inactive: IGROV-1 47.6 µM | 786-0 23.1 µM | COLO 205 16.3 µM | KM12 31.6 µM | SK-MEL-28 38.4 µM | U-251 21.8 µM | MOLT-4 17.9 µM | RXF 393 15.7 µM | A549 36.5 µM | TK-10 > 100 µM | EKVX 55.6 µM | SR 13 µM | UO-31 32.4 µM | OVCAR-3 21.7 µM | CCRF-CEM 22.1 µM | HCC 2998 43 µM | OVCAR-4 39.8 µM

O=C1c2ccoc2C(=O)c2oc(=O)ccc21
inactive: IGROV-1 19.6 µM | 786-0 16.8 µM | COLO 205 > 41.2 µM | KM12 > 42 µM | SK-MEL-28 5.43 µM | U-251 8.15 µM | RXF 393 5.86 µM | NCI-H522 1.86 µM | A549 20.3 µM | TK-10 > 45.1 µM | EKVX 20.8 µM | SR 1.43 µM | UO-31 7.43 µM | OVCAR-3 3.36 µM | CCRF-CEM 5.57 µM | HCC 2998 > 45.3 µM | OVCAR-4 5.13 µM

CC(C)C(=O)NS(=O)(=O)c1ccccc1
inactive: IGROV-1 > 100 µM | 786-0 > 100 µM | COLO 205 > 100 µM | KM12 > 100 µM | SK-MEL-28 > 100 µM | U-251 > 100 µM | MOLT-4 > 100 µM | RXF 393 > 100 µM | NCI-H522 > 100 µM | A549 > 100 µM | TK-10 > 100 µM | EKVX > 100 µM | SR > 100 µM | UO-31 > 100 µM | OVCAR-3 > 100 µM | CCRF-CEM > 100 µM | HCC 2998 > 100 µM | OVCAR-4 > 100 µM

CCCCCCC(=O)C/C(CCC(=O)N(Cc1ccccc1)Cc1ccccc1)=N\Nc1ccc([N+](=O)[O-])cc1[N+](=O)[O-]
inactive: IGROV-1 > 100 µM | 786-0 58.5 µM | COLO 205 41.1 µM | KM12 46 µM | SK-MEL-28 99.3 µM | U-251 54.1 µM | MOLT-4 > 10 µM | RXF 393 > 100 µM | NCI-H522 23.7 µM | A549 46.1 µM | TK-10 > 100 µM | EKVX 29.1 µM | SR > 10 µM | UO-31 51.6 µM | OVCAR-3 35.4 µM | CCRF-CEM 17.3 µM | HCC 2998 73.6 µM | OVCAR-4 40.1 µM

N#C/N=C(/NCCc1c[nH]c2ccccc12)Oc1ccccc1
inactive: IGROV-1 > 100 µM | 786-0 8.57 µM | COLO 205 59 µM | KM12 40.8 µM | SK-MEL-28 > 100 µM | U-251 > 100 µM | MOLT-4 37.1 µM | RXF 393 > 100 µM | A549 60.4 µM | TK-10 84.5 µM | EKVX 26.7 µM | SR 35 µM | UO-31 23.4 µM | OVCAR-3 > 100 µM | CCRF-CEM 21.9 µM | HCC 2998 44 µM | OVCAR-4 73.3 µM

Source: ChEMBL document CHEMBL1201862, “PubChem BioAssay data set” (2004)
